Source: ChEMBL document CHEMBL3124779, “Discovery of ABT-267, a pan-genotypic inhibitor of HCV NS5A” (J Med Chem, 2014)
Converted amounts (≈) assume the structure as drawn.

What was measured:
Hepatitis C virus [1] = assay: Antiviral activity against HCV1a H77 infected in human HuH7 cells assessed as inhibition of viral replication after 4 days by luciferase reporter gene assay in presence of 40% human plasma; type: functional, organism-based, Hepacivirus hominis; details: genotype 1a H77, Huh-7, Plasma, 96 h
[2] = Kinetic solubility of the compound in 10 mM of phosphate buffer at pH 7.2 by CLND method; type: physicochemical; details: read-out: Kinetic_solubility
Hepatitis C virus [3] = assay: Antiviral activity against HCV1a H77 infected in human HuH7 cells assessed as inhibition of viral replication after 4 days by luciferase reporter gene assay; type: functional, organism-based, Hepacivirus hominis; details: genotype 1a H77, Huh-7, 96 h
[4] = Metabolic stability in human liver microsomes assessed as compound remaining after 30 mins; type: ADME; details: read-out: Stability
Hepatitis C virus [5] = assay: Ratio of EC50 for HCV1a H77 infected in human HuH7 cells in presence of 40% human plasma to EC50 for HCV1a H77 infected in human HuH7 cells in absence of 40% human plasma; type: functional, Hepacivirus hominis, genotype 1a H77, Huh-7
Hepatitis C virus [6] = assay: Ratio of EC50 for HCV1b Con1 infected in human HuH7 cells in presence of 40% human plasma to EC50 for HCV1b Con1 infected in human HuH7 cells in absence of 40% human plasma; type: functional, Hepacivirus hominis, isolate Con1, Huh-7
[7] = Tmax in rat at 3 mg/kg, po; type: ADME, organism-based; set-up: dose 3 mg/kg, route oral; details: in vivo
Hepatitis C virus [8] = assay: Antiviral activity against HCV1b Con1 infected in human HuH7 cells assessed as inhibition of viral replication after 4 days by luciferase reporter gene assay in presence of 40% human plasma; type: functional, organism-based, Hepacivirus hominis; details: isolate Con1, Huh-7, Plasma, 96 h
Hepatitis C virus [9] = assay: Antiviral activity against HCV1b Con1 infected in human HuH7 cells assessed as inhibition of viral replication after 4 days by luciferase reporter gene assay; type: functional, organism-based, Hepacivirus hominis; details: isolate Con1, Huh-7, 96 h
[10] = Oral bioavailability in rat at 3 mg/kg; type: ADME, organism-based; details: in vivo
[11] = AUC in rat at 3 mg/kg, po; type: ADME, organism-based; set-up: dose 3 mg/kg, route oral; details: plasma
[12] = Clearance in rat at 3 mg/kg, iv; type: ADME, organism-based; set-up: dose 3 mg/kg, route intravenous; details: in vivo
[13] = Lipophilicity, log D of the compound at pH 7.4 by HPLC analysis; type: physicochemical; details: buffer
[14] = Cmax in rat at 3 mg/kg, po; type: ADME, organism-based; set-up: dose 3 mg/kg, route oral; details: in vivo
[15] = Metabolic stability in rat liver microsomes assessed as compound remaining after 30 mins; type: ADME; details: read-out: Stability
[16] = Half life in rat at 3 mg/kg, iv; type: ADME, organism-based; set-up: dose 3 mg/kg, route intravenous; details: in vivo
[17] = Volume of distribution at steady state in rat at 3 mg/kg, iv; type: ADME, organism-based; set-up: dose 3 mg/kg, route intravenous; details: in vivo, read-out: Vdss
[18] = Half life in rat at 3 mg/kg, po; type: ADME, organism-based; set-up: dose 3 mg/kg, route oral; details: in vivo
[19] = Half life in dog at 1 mg/kg, iv; type: ADME, organism-based, Canis lupus familiaris; set-up: dose 1 mg/kg, route intravenous; details: in vivo
[20] = Volume of distribution at steady state in dog at 1 mg/kg, iv; type: ADME, organism-based, Canis lupus familiaris; set-up: dose 1 mg/kg, route intravenous; details: in vivo, read-out: Vdss
[21] = Clearance in dog at 1 mg/kg, iv; type: ADME, organism-based, Canis lupus familiaris; set-up: dose 1 mg/kg, route intravenous; details: in vivo
[22] = Half life in dog at 2.5 mg/kg, po; type: ADME, organism-based, Canis lupus familiaris; set-up: dose 2.5 mg/kg, route oral; details: in vivo
[23] = Tmax in dog at 2.5 mg/kg, po; type: ADME, organism-based, Canis lupus familiaris; set-up: dose 2.5 mg/kg, route oral; details: in vivo
[24] = AUC in dog at 2.5 mg/kg, po; type: ADME, organism-based, Canis lupus familiaris; set-up: dose 2.5 mg/kg, route oral; details: plasma
[25] = Oral bioavailability in dog at 2.5 mg/kg; type: ADME, organism-based, Canis lupus familiaris; details: in vivo
[26] = Cmax in dog at 2.5 mg/kg, po; type: ADME, organism-based, Canis lupus familiaris; set-up: dose 2.5 mg/kg, route oral; details: in vivo

Structure (SMILES) | EC50 (Hepatitis C virus [1]) [pM] | solubility kinetic [2] [µM] | EC50 (Hepatitis C virus [3]) [pM] | remaining at 0.5 h [4] [%] | Tmax [7] [h] | EC50 (Hepatitis C virus [8]) [pM] | EC50 (Hepatitis C virus [9]) [pM] | bioavailability [10] [%] | AUC [11] [ng·h/mL] | clearance [12] [mL/min/kg] | logD [13] | Cmax [14] [ng/mL] | remaining at 0.5 h [15] [%] | half-life [16] [h] | Vd [17] [L/kg] | half-life [18] [h] | Ratio EC50 (Hepatitis C virus [5]) | Ratio EC50 (Hepatitis C virus [6]) | further results
COC(=O)N[C@H](C(=O)N1CCC[C@H]1C(=O)Nc1ccc([C@@H]2CC[C@@H](c3ccc(NC(=O)[C@@H]4CCCN4C(=O)[C@@H](NC(=O)OC)C(C)(C)C)cc3)N2c2ccc(F)cc2)cc1)C(C)(C)C | 15500 | 4.4 (≈ 3.89 µg/mL) | 263 | 52 | 3 | 528 | 6 | 23 | 1850 | < 6.5 | 5.2 | 110 | 56 | – | – | – | 59 | 88 | –
COC(=O)N[C@H](C(=O)N1CCC[C@H]1C(=O)Nc1ccc([C@@H]2CC[C@@H](c3ccc(NC(=O)[C@@H]4CCCN4C(=O)[C@@H](NC(=O)OC)[C@@H](C)OC)cc3)N2c2ccc(F)cc2)cc1)[C@@H](C)OC | 1400 | 9.6 (≈ 8.52 µg/mL) | 168 | 54 | 0.7 | 539 | 86 | 14 | 120 | 56.7 | 3 | 70 | 47 | 0.6 | 1.3 | 1.1 | 8 | 6 | –
COC(=O)N[C@H](C(=O)N1CCC[C@H]1C(=O)Nc1ccc([C@H]2CC[C@H](c3ccc(NC(=O)[C@@H]4CCCN4C(=O)[C@@H](NC(=O)OC)[C@@H](C)OC)cc3)N2c2ccc(F)cc2)cc1)[C@@H](C)OC | 1950 | 7.7 (≈ 6.84 µg/mL) | 794 | 48 | 0.5 | 1330 | 134 | 15 | 170 | 45 | 3 | 120 | 46 | 0.4 | 0.9 | 0.9 | 2 | 10 | –
COC(=O)N[C@H](C(=O)N1CCC[C@H]1C(=O)Nc1ccc([C@@H]2CC[C@@H](c3ccc(NC(=O)[C@@H]4CCCN4C(=O)[C@@H](NC(=O)OC)[C@H]4CCOC4)cc3)N2c2ccc(F)cc2)cc1)[C@H]1CCOC1 | 1390 | 9.7 (≈ 8.85 µg/mL) | 102 | 41 | 0.4 | 1270 | 54 | 1.5 | 20 | 31.7 | 3.2 | 20 | 42 | 0.9 | 0.5 | 0.6 | 14 | 24 | –
COC(=O)N[C@H](C(=O)N1CCC[C@H]1C(=O)Nc1ccc([C@@H]2CC[C@@H](c3ccc(NC(=O)[C@@H]4CCCN4C(=O)[C@@H](NC(=O)OC)C(C)C)cc3)N2c2ccc(C(F)(F)F)cc2)cc1)C(C)C | 650 | 3.4 (≈ 3.08 µg/mL) | 57 | 52 | 2.2 | 72 | 7.1 | 16 | 500 | 20 | 4.8 | 30 | 56 | 6 | 8.9 | 12.1 | 11 | 10 | half-life [19]: 6 h; Vd [20]: 1.3 L/kg; clearance [21]: 2.67 mL/min/kg; half-life [22]: 5.8 h; Tmax [23]: 4.7 h; AUC [24]: 850 ng·h/mL; bioavailability [25]: 5.5%; Cmax [26]: 70 ng/mL
COC(=O)N[C@H](C(=O)N1CCC[C@H]1C(=O)Nc1ccc([C@H]2CC[C@H](c3ccc(NC(=O)[C@@H]4CCCN4C(=O)[C@@H](NC(=O)OC)C(C)C)cc3)N2c2ccc(C(F)(F)F)cc2)cc1)C(C)C | 2550 | 3.2 (≈ 2.9 µg/mL) | 299 | 58 | 1.5 | 77 | 6.2 | 13 | 1360 | 4.83 | 4.9 | 200 | 58 | 4.2 | 1.3 | 4.9 | 9 | 12 | half-life [19]: 4.4 h; Vd [20]: 1.5 L/kg; clearance [21]: 4.83 mL/min/kg; half-life [22]: 5.5 h; Tmax [23]: 1.7 h; AUC [24]: 370 ng·h/mL; bioavailability [25]: 4.2%; Cmax [26]: 50 ng/mL
COC(=O)N[C@H](C(=O)N1CCC[C@H]1C(=O)Nc1ccc([C@H]2CC[C@H](c3ccc(NC(=O)[C@@H]4CCCN4C(=O)[C@@H](NC(=O)OC)C(C)C)cc3)N2c2ccc(C(C)(C)C)cc2)cc1)C(C)C | 986 | 1.8 (≈ 1.61 µg/mL) | 138 | – | 4.7 | 90 | 8.8 | 3.1 | 220 | 7.17 | 5.2 | 20 | 65 | 5.5 | 2.2 | 8.6 | 7 | 10 | –
COC(=O)N[C@H](C(=O)N1CCC[C@H]1C(=O)Nc1ccc([C@@H]2CC[C@@H](c3ccc(NC(=O)[C@@H]4CCCN4C(=O)[C@@H](NC(=O)OC)C(C)C)cc3)N2c2ccc(F)cc2)cc1)C(C)C | 3680 | 4.1 (≈ 3.51 µg/mL) | 396 | 44 | 1 | 184 | 12 | 22 | 750 | 15 | 4.6 | 190 | 49 | 2.6 | 2.4 | 3 | 9 | 15 | –

More lines, in order of falling EC50 (Hepatitis C virus [1]), values ahead:

EC50 (Hepatitis C virus [1]) [pM] | solubility kinetic [2] [µM] | EC50 (Hepatitis C virus [3]) [pM] | remaining at 0.5 h [4] [%] | Tmax [7] [h] | EC50 (Hepatitis C virus [8]) [pM] | EC50 (Hepatitis C virus [9]) [pM] | bioavailability [10] [%] | AUC [11] [ng·h/mL] | clearance [12] [mL/min/kg] | logD [13] | Cmax [14] [ng/mL] | remaining at 0.5 h [15] [%] | half-life [16] [h] | Vd [17] [L/kg] | half-life [18] [h] | Structure (SMILES) | Ratio EC50 (Hepatitis C virus [5]) | Ratio EC50 (Hepatitis C virus [6]) | further results
4310 | 2.2 (≈ 2.03 µg/mL) | 123 | 80 | 2.5 | 344 | 8.4 | 7.2 | 1390 | 2.83 | – | 90 | 83 | 10.2 | 1.7 | 12.4 | COC(=O)N[C@H](C(=O)N1CCC[C@H]1C(=O)Nc1ccc([C@H]2CC[C@H](c3ccc(NC(=O)[C@@H]4CCCN4C(=O)[C@@H](NC(=O)OC)C(C)(C)C)cc3)N2c2ccc(C(C)(C)C)cc2)cc1)C(C)(C)C | – | – | –
1920 | 8.5 (≈ 7.75 µg/mL) | 281 | 47 | 0.3 | 917 | 106 | 3.2 | 20 | 66.7 | 3.2 | 30 | 46 | 0.8 | 1.5 | 0.5 | COC(=O)N[C@H](C(=O)N1CCC[C@H]1C(=O)Nc1ccc([C@H]2CC[C@H](c3ccc(NC(=O)[C@@H]4CCCN4C(=O)[C@@H](NC(=O)OC)[C@H]4CCOC4)cc3)N2c2ccc(F)cc2)cc1)[C@H]1CCOC1 | 7 | 9 | –
1060 | 1.2 (≈ 1.11 µg/mL) | 21 | 78 | 5.3 | 117 | 2.2 | 7.2 | 1250 | 2.83 | – | 90 | 87 | 8.2 | 2.3 | 11 | COC(=O)N[C@H](C(=O)N1CCC[C@H]1C(=O)Nc1ccc([C@@H]2CC[C@@H](c3ccc(NC(=O)[C@@H]4CCCN4C(=O)[C@@H](NC(=O)OC)C(C)(C)C)cc3)N2c2ccc(C(C)(C)C)cc2)cc1)C(C)(C)C | – | – | –
